Type in all cases: cell-based
The target of experiment [1] is T1, human small conductance Ca^2+-activated K^+ channel, subfamily N, member 2 (SK2) (Homo sapiens, UniProt Q9H2S1).
T1 construct: gene KCNN2; transcript variant 1 (NM_021614.2)
As to the kind of experiment: whole-cell patch clamp, HEK-293 cells expressing SK2; % inhibition at […]. The settings on record: HEK293.

Experiment [2] deals with T1, human small conductance Ca^2+-activated K^+ channel, subfamily N, member 2 (SK2). As to the kind of experiment: whole-cell patch clamp, HEK-293 cells transiently expressing SK2; % inhibition at […]. The settings on record: HEK293. A general note: The patch-clamp technique gives a direct electrical read-out from membranes.
For experiment [3] the target is unchanged. The experiment can be described thus: whole-cell patch clamp, HEK-293 cells expressing SK2; % inhibition at […]. Particulars: HEK293; read-out: % inhibition at 500 nM.
The target is the same in experiment [4]. The experiment can be described thus: whole-cell patch clamp, HEK-293 cells transiently expressing SK2.

T1 sequence (Q9H2S1 whole entry): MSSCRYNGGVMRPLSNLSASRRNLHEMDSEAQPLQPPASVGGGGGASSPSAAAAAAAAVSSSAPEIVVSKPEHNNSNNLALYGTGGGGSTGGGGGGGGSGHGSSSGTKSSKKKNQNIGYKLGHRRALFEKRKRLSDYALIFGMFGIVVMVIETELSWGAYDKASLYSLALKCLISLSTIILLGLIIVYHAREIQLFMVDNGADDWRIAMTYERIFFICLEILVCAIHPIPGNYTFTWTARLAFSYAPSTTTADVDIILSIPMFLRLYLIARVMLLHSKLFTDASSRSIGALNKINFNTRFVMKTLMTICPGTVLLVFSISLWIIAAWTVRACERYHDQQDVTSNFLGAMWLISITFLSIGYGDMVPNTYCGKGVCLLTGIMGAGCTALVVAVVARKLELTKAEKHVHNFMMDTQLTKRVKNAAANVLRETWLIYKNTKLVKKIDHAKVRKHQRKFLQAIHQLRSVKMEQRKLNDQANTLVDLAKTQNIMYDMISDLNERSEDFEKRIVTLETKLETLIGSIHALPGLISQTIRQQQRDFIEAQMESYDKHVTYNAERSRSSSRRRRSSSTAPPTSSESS

Usually inhibition stands for how much of the control response was suppressed. `CCS(=O)(=O)N(C)[C@H]1c2cc(C#N)ccc2OC(C)(C)[C@@H]1O` (racemic) [chromanol 293B] came in with an inhibition at 100 µM in experiment [1] of 38.2 ± 15%.
With `CCCCc1oc2ccccc2c1C(=O)c1cc(I)c(OCCNCC)c(I)c1` [DEA, desethylamiodarone], in experiment [2], the inhibition at 20 µM worked out at 79%.
Turning to `Cc1cccc(CCN2CCC(C(=O)c3ccc(NS(C)(=O)=O)cc3)CC2)n1` [E-4031], in experiment [3], the inhibition at 0.5 µM worked out at 37.6 ± 14.9%.
As a reminder, the IC50 is the concentration at which inhibition is half-maximal. Read a high IC50 as a need for much substance. `CCCCc1oc2ccccc2c1C(=O)c1cc(I)c(OCCN(CC)CC)c(I)c1` [amiodarone] registered a 50% inhibitory concentration (IC50) in experiment [4] of 2670 ± 250 nM.

The values are drawn from PMC3726612, “Amiodarone Inhibits Apamin-Sensitive Potassium Currents” (PLoS ONE, 2013).
